Key:
[1] = molecular target: murine STING protein (amino acids 154-378) (Mus musculus (Mouse), UniProt Q3TBT3); test: Murine STING [3H] 2′,3′-cGAMP scintillation proximity competition binding assay; settings: read-out: Murine Binding IC50
[2] = molecular target: wild-type (WT) truncated human STING protein, amino acids 155-379 (Homo sapiens (Human), UniProt Q86WV6, H232R); test: Human WT STING [3H] 2′,3′-cGAMP scintillation proximity competition binding assay; settings: read-out: Human WT Binding IC50
Sequence of wild-type (WT) truncated human STING protein, amino acids 155-379 (Q86WV6 155-379 H232R): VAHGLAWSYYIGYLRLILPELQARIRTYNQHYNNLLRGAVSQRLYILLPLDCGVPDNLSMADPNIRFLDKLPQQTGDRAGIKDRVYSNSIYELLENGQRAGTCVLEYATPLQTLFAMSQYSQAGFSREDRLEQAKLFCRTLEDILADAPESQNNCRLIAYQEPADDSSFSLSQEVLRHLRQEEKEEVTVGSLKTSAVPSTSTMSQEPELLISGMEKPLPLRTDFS
From the text: (§1) A human STING [^3H] 2′,3′-cGAMP scintillation proximity competition binding assay was utilized to detect binding of compounds to STING protein. […] The protein encoding plasmid contained a HIS tag, followed by an Avi tag and then a SUMO tag, which were followed by the STING coding sequence within the pET-28a (+) vector. The plasmid was transfected into a BL21 (DE3)/BirA E. coli co-expression strain. Protein was purified from the bacterial lysate using a cobalt-affinity column. The purified protein was dialyzed against PBS and then 20% glycerol was added prior to storage at −80° C.
(§2) 2′,3′-cGAMP in assay buffer (50 mM Tris pH 7.5, 100 mM NaCl, 0.1% Fatty Acid Free BSA). Test compounds (2.5 μL) were added to the plate first followed by a 25 μL mixture of STING protein, streptavidin PVT SPA beads (Perkin Elmer) and 10 μL [^3H] 2′,3′-cGAMP. Plates were incubated at room temperature for 18 hrs and read on a Wallac MicroBeta TriLux (Perkin Elmer).

[3] = molecular target: AQ variant of truncated human STING protein, amino acids 155-379 (Homo sapiens (Human), UniProt Q86WV6, G230A/H232R/R293Q); test: Human AQ STING [3H] 2′,3′-cGAMP scintillation proximity competition binding assay; settings: read-out: Human AQ Binding IC50
Sequence of AQ variant of truncated human STING protein, amino acids 155-379 (Q86WV6 155-379 G230A/H232R/R293Q): as the sequence (Q86WV6 155-379 H232R) above, with G76A, R139Q counted along it
From the text: as §1, §2

Sequence of murine STING protein (amino acids 154-378) (Q3TBT3 154-378): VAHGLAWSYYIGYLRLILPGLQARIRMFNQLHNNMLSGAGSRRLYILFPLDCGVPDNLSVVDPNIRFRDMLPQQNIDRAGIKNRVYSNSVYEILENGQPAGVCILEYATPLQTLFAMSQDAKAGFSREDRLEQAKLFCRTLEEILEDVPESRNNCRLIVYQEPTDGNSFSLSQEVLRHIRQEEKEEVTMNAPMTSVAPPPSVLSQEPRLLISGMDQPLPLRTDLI

Row | SMILES | IC50 [1] [nM] | IC50 [2] [nM] | IC50 [3] [nM]
1 | Nc1nc2c(ncn2[C@@H]2O[C@@H]3COP(=O)(S)OCCn4c(nc5cncnc54)COP(=O)(O)O[C@@H]2[C@@H]3F)c(=O)[nH]1 (single isomer, unassigned) [Example 6A] | < 1000 |  | 
2 | Nc1nc2c(ncn2[C@@H]2O[C@@H]3COP(=O)(S)OCCn4nc(-c5cncs5)nc4COP(=O)(S)O[C@@H]2[C@@H]3F)c(=O)[nH]1 (single isomer, unassigned) [Example 16C] | < 1000 |  | 
3 | Nc1nc2c(ncn2[C@@H]2O[C@@H]3COP(=O)(S)OCCn4c(nc5cnc(C6CC6)nc54)COP(=O)(S)O[C@@H]2[C@@H]3F)c(=O)[nH]1 (single isomer, unassigned) [Example 12C] | < 1000 |  | 
4 | Nc1nc2c(ncn2[C@@H]2O[C@@H]3COP(=O)(S)OCCn4c(nc5cncnc54)COP(=O)(S)O[C@@H]2[C@H]3F)c(=O)[nH]1 (single isomer, unassigned) [Example 25D] |  | < 1000 | < 1000
5 | Nc1nc2c(ncn2[C@@H]2O[C@@H]3COP(=O)(S)OCCn4c(nc5cc(Cl)cnc54)COP(=O)(S)O[C@@H]2[C@@H]3F)c(=O)[nH]1 (single isomer, unassigned) [Example 14C] | < 1000 |  | 
6 | Nc1nc2c(ncn2[C@@H]2O[C@@H]3COP(=O)(O)OCCCn4c(nc5cncnc54)COP(=O)(O)O[C@@H]2[C@@H]3O)c(=O)[nH]1 [Example 2, (1R,22R,24R,25R)-24-(2-Amino-6-oxo-6,9-dihydro-1H-purin-9-yl)-3,19,25-trihydroxy-2,4,18,20,23-pentaoxa-710,122,14-tetraaza-3lambda5,19lambda5-diphosphatetracyclo[20.2.1.06,14.08,13]pentacosa-6,8(13),9,11-tetraene-3,19-dione] |  | 10000 to 100000 | 10000 to 100000
7 | Nc1nc2c(ncn2[C@@H]2O[C@@H]3COP(=O)(S)OCCn4c(nc5cncnc54)COP(=O)(S)O[C@@H]2[C@@H]3O)c(=O)[nH]1 (mixture of isomers) [Example 15A, (1R,21R,23R,24R)-23-(2-Amino-6-oxo-6,9-dihydro-1H-purin-9-yl)-24-hydroxy-3,18-disulfanyl-2,4,17,19,22-pentaoxa-7,10,12,14-tetraaza-3lambda5,18lambda5-diphosphatetracyclo[19.2.1.06,14.08,13]tetracosa-6,8,10,12-tetraene-3,18-dione] | < 1000 |  | 
8 | Nc1nc2c(ncn2[C@@H]2O[C@@H]3COP(=O)(S)OCCn4nc(-c5ccncc5)nc4COP(=O)(S)O[C@@H]2[C@@H]3F)c(=O)[nH]1 (single isomer, unassigned) [Example 34B] | 1000 to 9990 |  | 
9 | Nc1nc2c(nc3n2CCOP(=O)(S)OC[C@H]2O[C@@H](n4cnc5c(N)ncnc54)[C@H](OP(=O)(S)OC3)[C@@H]2F)c(=O)[nH]1 (single isomer, unassigned) [Example 23D] | 10000 to 100000 |  | 
10 | Nc1nc2c(ncn2[C@@H]2O[C@@H]3COP(=O)(S)OCCn4c(nc5cncnc54)COP(=O)(S)O[C@@H]2[C@@H]3O)c(=O)[nH]1 (single isomer, unassigned) [Example 15C] | < 1000 |  | 
11 | C[C@H]1Cn2c(nc3cncnc32)COP(=O)(S)O[C@@H]2[C@H](F)[C@@H](COP(=O)(S)O1)O[C@H]2n1cnc2c(=O)[nH]c(N)nc21 (single isomer, unassigned) [Example 33C] |  | 10000 to 100000 | 
12 | Nc1nc2c(ncn2[C@@H]2O[C@@H]3COP(=O)(S)OCCn4c(nc5cncnc54)COP(=O)(O)O[C@@H]2[C@@H]3F)c(=O)[nH]1 (single isomer, unassigned) [Example 6B] | < 1000 |  | 
13 | Nc1nc2c(ncn2[C@@H]2O[C@@H]3COP(=O)(S)OCCn4c(nc5cc(Cl)cnc54)COP(=O)(S)O[C@@H]2[C@@H]3F)c(=O)[nH]1 (single isomer, unassigned) [Example 14D] | < 1000 |  | 
14 | Nc1nc2c(ncn2[C@@H]2O[C@@H]3COP(=O)(S)OCCn4c(nc5cncnc54)COP(=O)(S)O[C@@H]2[C@@H]3O)c(=O)[nH]1 (single isomer, unassigned) [Example 15D] | < 1000 |  | 
15 | Nc1nc2c(ncn2[C@@H]2O[C@@H]3COP(=O)(O)OCCn4c(nc5cncnc54)COP(=O)(S)O[C@@H]2[C@@H]3F)c(=O)[nH]1 (single isomer, unassigned) [Example 5B] | 1000 to 9990 |  | 
16 | Nc1nc2c(ncn2[C@@H]2O[C@@H]3COP(=S)(S)OCCn4c(nc5cncnc54)COP(=O)(S)O[C@@H]2[C@@H]3F)c(=O)[nH]1 (stereo partly drawn) [Example 39, (1S,21R,23R,24R)-23-(2-Amino-6-oxo-6,9-dihydro-1H-purin-9-yl)-24-fluoro-3,18-disulfanyl-18-sulfanylidene-2,4,17,19,22-pentaoxa-7,10,12,14-tetraaza-3lambda5,18lambda5-diphosphatetracyclo[19.2.1.06,14.08,13]tetracosa-6,8(13),9,11-tetraen-3-one] | < 1000 |  | 
17 | Nc1nc2c(ncn2[C@@H]2O[C@@H]3COP(=O)(O)OCCn4c(nc5cncnc54)COP(=O)(S)O[C@@H]2[C@@H]3F)c(=O)[nH]1 (single isomer, unassigned) [Example 5A] | < 1000 |  | 
18 | Nc1nc2c(ncn2[C@@H]2O[C@@H]3COP(=O)(S)OCCn4c(nc5c(=O)[nH]cnc54)COP(=O)(S)O[C@@H]2[C@@H]3F)c(=O)[nH]1 (single isomer, unassigned) [Example 3B] | 1000 to 9990 |  | 

Row | SMILES | IC50 [1] [nM] | IC50 [2] [nM] | IC50 [3] [nM]
19 | Nc1nc2c(ncn2[C@@H]2O[C@@H]3COP(=O)(S)OCCn4nc(-c5cncs5)nc4COP(=O)(S)O[C@@H]2[C@@H]3F)c(=O)[nH]1 (single isomer, unassigned) [Example 16D] | < 1000 |  | 
20 | Nc1nc2c(nnn2[C@@H]2O[C@@H]3COP(=O)(S)OCCn4c(nc5cncnc54)COP(=O)(S)O[C@@H]2[C@@H]3F)c(=O)[nH]1 (single isomer, unassigned) [Example 24A] | < 1000 |  | 
21 | Nc1nc2c(ncn2[C@@H]2O[C@@H]3COP(=O)(S)OCCn4c(nc5cncnc54)COP(=O)(S)O[C@@H]2[C@H]3F)c(=O)[nH]1 (single isomer, unassigned) [Example 25B] |  | 10000 to 100000 | 
22 | Nc1nc2c(ncn2[C@@H]2O[C@@H]3COP(=O)(S)OCCn4c(nc5c(=O)[nH]cnc54)COP(=O)(S)O[C@@H]2[C@@H]3F)c(=O)[nH]1 (single isomer, unassigned) [Example 3D] | 1000 to 9990 |  | 
23 | C[C@H]1COP(=O)(S)OC[C@H]2O[C@@H](n3cnc4c(=O)[nH]c(N)nc43)[C@H](OP(=O)(S)OCc3nc4cncnc4n31)[C@@H]2F (single isomer, unassigned) [Example 20D] | 10000 to 100000 |  | 
24 | Nc1nc2c(ncn2[C@@H]2O[C@@H]3COP(=O)(S)OCCn4c(nc5cnccc54)COP(=O)(S)O[C@@H]2[C@@H]3F)c(=O)[nH]1 (single isomer, unassigned) [Example 17C] | < 1000 |  | 
25 | Nc1nc2c(nnn2[C@@H]2O[C@@H]3COP(=O)(S)OCCn4c(nc5cncnc54)COP(=O)(S)O[C@@H]2[C@@H]3F)c(=O)[nH]1 (single isomer, unassigned) [Example 24C] | < 1000 |  | 
26 | Nc1nc2ncn([C@@H]3O[C@@H]4COP(=O)(S)OCCn5c(nc6cc(Cl)cnc65)COP(=O)(S)O[C@@H]3[C@@H]4F)c2c(=O)[nH]1 (single isomer, unassigned) [Example 13A] | < 1000 |  | 
27 | Nc1nc2c(ncn2[C@@H]2O[C@@H]3COP(=O)(S)OCCn4c(nc5cnc(C6CC6)nc54)COP(=O)(S)O[C@@H]2[C@@H]3F)c(=O)[nH]1 (single isomer, unassigned) [Example 12D] | 1000 to 9990 |  | 
28 | Nc1nc2c(ncn2[C@@H]2O[C@@H]3COP(=O)(S)OCCn4nc(-c5cncs5)nc4COP(=O)(S)O[C@@H]2[C@@H]3F)c(=O)[nH]1 (single isomer, unassigned) [Example 16A] | < 1000 |  | 
29 | Nc1nc2c(ncn2[C@@H]2O[C@@H]3COP(=O)(S)OCCn4c(nc5cc(Cl)cnc54)COP(=O)(S)O[C@@H]2[C@@H]3F)c(=O)[nH]1 (single isomer, unassigned) [Example 14A] | < 1000 |  | 
30 | Nc1nc2c(ncn2[C@@H]2O[C@@H]3COP(=O)(S)OCCn4c(nc5c(=O)[nH]cnc54)COP(=O)(S)O[C@@H]2[C@@H]3F)c(=O)[nH]1 (single isomer, unassigned) [Example 3C] | < 1000 |  | 
31 | Nc1nc2c(ncn2[C@@H]2O[C@@H]3COP(=O)(S)OCCn4nc(-c5ccncc5)nc4COP(=O)(S)O[C@@H]2[C@@H]3F)c(=O)[nH]1 (single isomer, unassigned) [Example 34D] | 1000 to 9990 |  | 
32 | Nc1nc2c(ncn2[C@@H]2O[C@@H]3COP(=O)(S)OCCn4c(nc5cncnc54)COP(=O)(S)O[C@@H]2[C@@H]3F)c(=O)[nH]1 (single isomer, unassigned) [Example 1A] |  |  | < 1000
33 | Nc1nc2c(nnn2[C@@H]2O[C@@H]3COP(=O)(S)OCCn4c(nc5cncnc54)COP(=O)(S)O[C@@H]2[C@@H]3F)c(=O)[nH]1 (single isomer, unassigned) [Example 24D] | < 1000 |  | 
34 | Nc1nc2c(nnn2[C@@H]2O[C@@H]3COP(=O)(S)OCCn4c(nc5cncnc54)COP(=O)(S)O[C@@H]2[C@@H]3F)c(=O)[nH]1 (single isomer, unassigned) [Example 24B] | 10000 to 100000 |  | 
35 | Nc1nc2c(ncn2[C@@H]2O[C@@H]3COP(=O)(S)OCCn4nc(-c5ccncc5)nc4COP(=O)(S)O[C@@H]2[C@@H]3F)c(=O)[nH]1 (single isomer, unassigned) [Example 34C] | < 1000 |  | 

From patent US11161864B2, “Sting agonists” (Venenum Biodesign, LLC, priority 2018, dated 2021)
